For 29 compounds, EC50 results are on record in patent US8741906B2 (priority 2011, dated 2014).

Where two headings read alike, the source gives them in different places.

In assay [1] the target is T1, human CB2 receptors (Homo sapiens, UniProt P34972).
T1 construct: expressed in transfected cells; host or cells: CHO cells
Briefly: functional cAMP assay, human CB2. Format: cell-based. As to conditions: CHO cells expressing human CB2, cAMP; read-out: human CB2 EC50. The procedure, abridged: (§1)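 Cells are seeded 17-24 h ahead, then preincubated in Krebs Ringer bicarbonate buffer with 1 mM IBMX at 30 °C. Compounds act for 30 min at 30 °C, after which lysis and cAMP detection reagents are added for 2 h at room temperature. Time-resolved FRET gives cAMP content, and EC50 values are fitted from it.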
Background: Changes in cAMP serve as a functional read-out for many G protein-coupled receptors.

Assay [2] addresses T2, human CB1 receptors (Homo sapiens, UniProt P21554).
T2 construct: expressed in transfected cells; host or cells: CHO cells
Briefly: functional cAMP assay, human CB1. The class given is cell-based. The gist of the method:
as §1

The mark [3] stands for this setting: CHO cells expressing human CB1, cAMP, read-out: human CB1 EC50.

T2 sequence (P21554 whole entry): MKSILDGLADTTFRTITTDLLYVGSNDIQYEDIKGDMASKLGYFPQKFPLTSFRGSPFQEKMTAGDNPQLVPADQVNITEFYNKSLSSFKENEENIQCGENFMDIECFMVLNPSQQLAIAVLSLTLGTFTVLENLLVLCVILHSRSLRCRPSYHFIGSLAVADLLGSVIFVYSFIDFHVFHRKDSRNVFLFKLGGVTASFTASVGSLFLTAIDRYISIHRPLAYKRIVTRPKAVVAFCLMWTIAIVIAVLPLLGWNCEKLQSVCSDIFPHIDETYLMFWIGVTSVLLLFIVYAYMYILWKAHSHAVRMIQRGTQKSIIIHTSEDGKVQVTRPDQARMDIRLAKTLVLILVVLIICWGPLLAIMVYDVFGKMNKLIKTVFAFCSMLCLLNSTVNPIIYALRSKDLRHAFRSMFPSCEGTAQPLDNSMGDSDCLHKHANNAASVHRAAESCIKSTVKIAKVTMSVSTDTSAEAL
T1 sequence (P34972 whole entry): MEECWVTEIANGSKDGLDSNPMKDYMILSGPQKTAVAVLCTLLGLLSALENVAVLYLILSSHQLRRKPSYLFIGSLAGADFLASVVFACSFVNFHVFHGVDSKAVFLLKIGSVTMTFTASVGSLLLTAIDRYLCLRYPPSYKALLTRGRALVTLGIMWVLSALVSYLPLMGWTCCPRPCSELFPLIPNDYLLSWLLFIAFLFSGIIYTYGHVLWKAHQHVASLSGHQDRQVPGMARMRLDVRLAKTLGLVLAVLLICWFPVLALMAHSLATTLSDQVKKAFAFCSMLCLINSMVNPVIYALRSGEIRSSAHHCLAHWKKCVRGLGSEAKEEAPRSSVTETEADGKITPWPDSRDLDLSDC

In general, EC50 refers to the concentration that produces a half-maximal response. For the compound `Cn1nncc1Cn1nnc2c(N3CC[C@H](O)C3)nc(C(C)(C)C)nc21` [Example 154, (S)-1-[5-tert-Butyl-3-(3-methyl-3H-[1,2,3]triazol-4-ylmethyl)-3H-[1,2,3]triazolo[4,5-d]pyrimidin-7-yl]-pyrrolidin-3-ol], the results for the EC50 in assay [1] and in assay [2] (setting [3]) were 2.5 nM and over 10000 nM, respectively.

`Cc1noc(Cn2nnc3c(N4CC[C@H](O)C4)nc(C(C)(C)C)nc32)n1` [Example 137, (S)-1-[5-tert-Butyl-3-(3-methyl-[1,2,4]oxadiazol-5-ylmethyl)-3H-[1,2,3]triazolo[4,5-d]pyrimidin-7-yl]-pyrrolidin-3-ol]: the concentration giving a half-maximal response (EC50) in assay [1] was 18.2 nM; in assay [2] (setting [3]), over 10000 nM.

With `CC(C)(C)c1nc(N2CCC(F)(F)C2)c2nnn(Cc3ccc(Cl)cc3)c2n1` [Example 66, 5-tert-Butyl-3-(4-chloro-benzyl)-7-(3,3-difluoro-pyrrolidin-1-yl)-3H-[1,2,3]triazolo[4,5-d]pyrimidine], the figures for the EC50 in assay [1] and in assay [2] (setting [3]) were 2 nM and over 10000 nM, respectively.

Turning to `CC(C)(C)c1nc(N2CCC(F)(F)C2)c2nnn(Cc3ccccc3C#N)c2n1` [Example 83, 2-[5-tert-Butyl-7-(3,3-difluoro-pyrrolidin-1-yl)-[1,2,3]triazolo[4,5-d]pyrimidin-3-ylmethyl]-benzonitrile], the figures for the EC50 in assay [1] and in assay [2] (setting [3]) were 0.1 nM and 283 nM, respectively.

Take `CC(C)(C)c1nc(N2CCCOCC2)c2nnn(Cc3ccccc3Cl)c2n1` [Example 22, 5-tert-Butyl-3-(2-chloro-benzyl)-7-[1,4]oxazepan-4-yl-3H-[1,2,3]triazolo[4,5-d]pyrimidine]: the EC50 in assay [1] came out at 2.4 nM; in assay [2] (setting [3]), 1500 nM.

In the case of `CC(C)(C)c1nc(N2CCSCC2)c2nnn(Cc3ccccc3Cl)c2n1` [Example 20, 5-tert-Butyl-3-(2-chloro-benzyl)-7-thiomorpholin-4-yl-3H-[1,2,3]triazolo[4,5-d]pyrimidine], the EC50 in assay [1] turned out to be 1.7 nM; in assay [2] (setting [3]), 346 nM.

On to `Cc1nnc(Cn2nnc3c(N4CC(F)(F)C(F)(F)C4)nc(C(C)(C)C)nc32)n1C` [Example 177, 5-tert-Butyl-3-(4,5-dimethyl-4H-[1,2,4]triazol-3-ylmethyl)-7-(3,3,4,4-tetrafluoro-pyrrolidin-1-yl)-3H-[1,2,3]triazolo[4,5-d]pyrimidine], for which the EC50 in assay [1] is 1.1 nM; in assay [2] (setting [3]), over 10000 nM.

For `Cc1noc(Cn2nnc3c(N4CC[C@@](C)(O)C4)nc(C(C)(C)C)nc32)n1` [Example 226-b, (R)-1-(5-tert-butyl-3-((3-methyl-1,2,4-oxadiazol-5-yl)methyl)-3H-[1,2,3]triazolo[4,5-d]pyrimidin-7-yl)-3-methylpyrrolidin-3-ol], the EC50 in assay [1] was 233 nM; in assay [2] (setting [3]) it was over 10000 nM.

Take `CC(C)(C)c1nc(N2CC3(COC3)C2)c2nnn(Cc3ccccc3S(C)(=O)=O)c2n1` [Example 186, 5-tert-Butyl-3-(2-methanesulfonyl-benzyl)-7-(2-oxa-6-aza-spiro[3.3]hept-6-yl)-3H-[1,2,3]triazolo[4,5-d]pyrimidine]: the EC50 worked out at 0.3 nM in assay [1] and 137 nM in assay [2] (setting [3]).

With `CC(C)(C)c1nc(N2CC(F)(F)C[C@@H]2CO)c2nnn(Cc3ccccc3Cl)c2n1` [Example 94, {(R)-1-[5-tert-Butyl-3-(2-chloro-benzyl)-3H-[1,2,3]triazolo[4,5-d]pyrimidin-7-yl]-4,4-difluoro-pyrrolidin-2-yl}-methanol], the EC50 in assay [1] is 1 nM; in assay [2] (setting [3]) it was over 10000 nM.

Take `CC1COCCN1c1nc(C(C)(C)C)nc2c1nnn2Cc1ccccc1Cl` (stereo not shown) [Example 17, 5-tert-Butyl-3-(2-chloro-benzyl)-7-(3-methyl-morpholin-4-yl)-3H-[1,2,3]triazolo[4,5-d]pyrimidine]: the half-maximal effective concentration (EC50) in assay [1] was 8.7 nM; in assay [2] (setting [3]), over 10000 nM.

In the case of `CC(C)(C)c1nc(N2CCC(F)(F)C2)c2nnn(CCc3ccc(Cl)cc3)c2n1` [Example 105, 5-tert-Butyl-3-[2-(4-chloro-phenyl)-ethyl]-7-(3,3-difluoro-pyrrolidin-1-yl)-3H-[1,2,3]triazolo[4,5-d]pyrimidine], the EC50 is 6.5 nM in assay [1] and over 10000 nM in assay [2] (setting [3]).

On to `CC(C)(C)c1nc(N2CCC[C@H]2C#N)c2nnn(Cc3ccccc3Cl)c2n1` [Example 50, (S)-1-[5-tert-Butyl-3-(2-chloro-benzyl)-3H-[1,2,3]triazolo[4,5-d]pyrimidin-7-yl]-pyrrolidine-2-carbonitrile], for which the EC50 is 1 nM in assay [1] and 139 nM in assay [2] (setting [3]).

With `CC(C)(C)c1nc(N2CCC(F)(F)C2)c2nnn(CC(=O)c3cccc(Cl)c3)c2n1` [Example 115, 2-[5-tert-Butyl-7-(3,3-difluoro-pyrrolidin-1-yl)-[1,2,3]triazolo[4,5-d]pyrimidin-3-yl]-1-(3-chloro-phenyl)-ethanone], the concentration giving a half-maximal response (EC50) is 0.4 nM in assay [1] and over 10000 nM in assay [2] (setting [3]).

As to `CC(C)(C)c1nc(OCC2CC2)c2nnn(Cc3ccccc3Cl)c2n1` [Example 210, 5-tert-Butyl-3-(2-chloro-benzyl)-7-cyclopropylmethoxy-3H-[1,2,3]triazolo[4,5-d]pyrimidine], the EC50 in assay [1] is 16.7 nM; in assay [2] (setting [3]) it was over 10000 nM.

Regarding `CC(C)(C)c1nc(N2CCC(F)(F)C2)c2nnn(Cc3ccccc3Cl)c2n1` [Example 6, 5-tert-Butyl-3-(2-chloro-benzyl)-7-(3,3-difluoro-pyrrolidin-1-yl)-3H-[1,2,3]triazolo[4,5-d]pyrimidine], the concentration for a half-maximal effect (EC50) in assay [1] is 0.2 nM; in assay [2] (setting [3]), 165 nM.

For `CC(C)(C)c1nc(N2CCOCC2(C)C)c2nnn(Cc3ccccc3Cl)c2n1` [Example 24, 5-tert-Butyl-3-(2-chloro-benzyl)-7-(3,3-dimethyl-morpholin-4-yl)-3H-[1,2,3]triazolo[4,5-d]pyrimidine], the EC50 in assay [1] is 3 nM; in assay [2] (setting [3]) it was 476 nM.

On to `Cc1c(Cn2nnc3c(N4CCC(F)(F)C4)nc(C(C)(C)C)nc32)ccc[n+]1[O-]` [Example 147, 5-tert-Butyl-7-(3,3-difluoro-pyrrolidin-1-yl)-3-(2-methyl-1-oxy-pyridin-3-ylmethyl)-3H-[1,2,3]triazolo[4,5-d]pyrimidine], for which the half-maximal effective concentration (EC50) was determined as 0.3 nM in assay [1] and 209 nM in assay [2] (setting [3]).

As to `Cn1nnnc1Cn1nnc2c(N3CC[C@H](O)[C@@H]3CO)nc(C(C)(C)C)nc21` [Example 165, (2S,3S)-1-[5-tert-Butyl-3-(1-methyl-1H-tetrazol-5-ylmethyl)-3H-[1,2,3]triazolo[4,5-d]pyrimidin-7-yl]-2-hydroxymethyl-pyrrolidin-3-ol], the EC50 is 53.5 nM in assay [1] and over 10000 nM in assay [2] (setting [3]).

Consider `Cn1nnnc1Cn1nnc2c(N3CC[C@](C)(O)C3)nc(C(C)(C)C)nc21` [Example 227-a, (S)-1-(5-tert-butyl-3-((1-methyl-1H-tetrazol-5-yl)methyl)-3H-[1,2,3]triazolo[4,5-d]pyrimidin-7-yl)-3-methylpyrrolidin-3-ol], for which the figures for the EC50 in assay [1] and in assay [2] (setting [3]) were 18.7 nM and over 10000 nM, respectively.

As for `CC(C)(C)c1nc(N2CCC[C@H](O)C2)c2nnn(Cc3ccccc3Cl)c2n1` [Example 33, (S)-1-[5-tert-Butyl-3-(2-chloro-benzyl)-3H-[1,2,3]triazolo[4,5-d]pyrimidin-7-yl]-piperidin-3-ol], the values for the EC50 in assay [1] and in assay [2] (setting [3]) were 2.5 nM and 764 nM, respectively.

On to `Cn1ccc(C2CCCN2c2nc(C(C)(C)C)nc3c2nnn3Cc2ccccc2Cl)n1` (stereo not shown) [Example 200, 5-tert-Butyl-3-(2-chloro-benzyl)-7-[2-(1-methyl-1H-pyrazol-3-yl)-pyrrolidin-1-yl]-3H-[1,2,3]triazolo[4,5-d]pyrimidine], for which the values for the EC50 in assay [1] and in assay [2] were 178 nM and over 10000 nM, respectively.

With `CC(C)(C)c1nc(N2CCC(O)CC2)c2nnn(Cc3ccccc3Cl)c2n1` [Example 32, 1-[5-tert-Butyl-3-(2-chloro-benzyl)-3H-[1,2,3]triazolo[4,5-d]pyrimidin-7-yl]-piperidin-4-ol], the EC50 was 20.7 nM in assay [1] and over 10000 nM in assay [2] (setting [3]).

With `CC(C)(C)c1nc(N2CCC(F)(F)C2)c2nnn(CC(O)c3ccccc3)c2n1` (stereo not shown) [Example 88, 2-[5-tert-Butyl-7-(3,3-difluoro-pyrrolidin-1-yl)-[1,2,3]triazolo[4,5-d]pyrimidin-3-yl]-1-phenyl-ethanol], the 50% effective concentration (EC50) in assay [1] worked out at 0.9 nM; in assay [2] (setting [3]) it was 391 nM.

Take `CC(C)(C)c1nc(N2CCC(F)(F)C2)c2nnn(Cc3nc(Cl)ccc3Cl)c2n1` [Example 100, 5-tert-Butyl-3-(3,6-dichloro-pyridin-2-ylmethyl)-7-(3,3-difluoro-pyrrolidin-1-yl)-3H-[1,2,3]triazolo[4,5-d]pyrimidine]: the EC50 in assay [1] came out at 0.1 nM; in assay [2] (setting [3]), 110 nM.

As for `CN(C)C1CCN(c2nc(C(C)(C)C)nc3c2nnn3Cc2ccccc2Cl)C1` (stereo not shown) [Example 191, {1-[5-tert-Butyl-3-(2-chloro-benzyl)-3H-[1,2,3]triazolo[4,5-d]pyrimidin-7-yl]-pyrrolidin-3-yl}-dimethyl-amine], the values for the EC50 in assay [1] and in assay [2] were 173 nM and over 10000 nM, respectively.

`CC(C)(C)c1nc(N2CC[C@H](O)C2)c2nnn(Cc3nc(Cl)ccc3Cl)c2n1` [Example 139, (S)-1-[5-tert-Butyl-3-(3,6-dichloro-pyridin-2-ylmethyl)-3H-[1,2,3]triazolo[4,5-d]pyrimidin-7-yl]-pyrrolidin-3-ol]: the results for the EC50 in assay [1] and in assay [2] (setting [3]) were 0.3 nM and over 10000 nM, respectively.

On to `CC(C)(C)c1nc(N2C[C@@H](O)[C@@H](O)C2)c2nnn(Cc3ccccc3Cl)c2n1` [Example 56, (3S,4R)-1-[5-tert-Butyl-3-(2-chloro-benzyl)-3H-[1,2,3]triazolo[4,5-d]pyrimidin-7-yl]-pyrrolidine-3,4-diol], for which the 50% effective concentration (EC50) was 16.5 nM in assay [1] and over 10000 nM in assay [2] (setting [3]).

As for `CC(C)(C)c1nc(OC2CCC2)c2nnn(Cc3ccccc3Cl)c2n1` [Example 205, 5-tert-Butyl-3-(2-chloro-benzyl)-7-cyclobutoxy-3H-[1,2,3]triazolo[4,5-d]pyrimidine], the EC50 is 12.2 nM in assay [1] and over 10000 nM in assay [2] (setting [3]).
